Experimental data: patent US5389627A, “Cephem compounds” (priority 1993, dated 1995)
Values after ≈ are worked out from the molar mass of the structure shown.

What was measured:
Assay in all cases: In vitro antibacterial activity, minimum inhibitory concentration
Type in all cases: cell-based
[1] = system: E.cloacae C4008; conditions: Enterobacter cloacae; E.cloacae C4008; read-out: Minimum Inhibitory Concentration (MIC)
Excerpt: (§1) As reference compounds, Cefotaxime (CTX), Ceftazidime (CAZ) and Cefpirome (CPR) were employed.

[2] = system: E.cloacae C4009; conditions: Enterobacter cloacae; E.cloacae C4009; read-out: Minimum Inhibitory Concentration (MIC)
Excerpt: as §1

[3] = system: E.coli ATCC10536; conditions: Escherichia coli; E.coli ATCC10536; read-out: Minimum Inhibitory Concentration (MIC)
Excerpt: as §1

[4] = system: E.coli ATCC25922; conditions: Escherichia coli; E.coli ATCC25922; read-out: Minimum Inhibitory Concentration (MIC)
Excerpt: as §1

[5] = system: E.coli C4002; conditions: Escherichia coli; E.coli C4002; read-out: Minimum Inhibitory Concentration (MIC)
Excerpt: as §1

[6] = system: K.oxytoca C4022; conditions: Klebsiella oxytoca; K.oxytoca C4022; read-out: Minimum Inhibitory Concentration (MIC)
Excerpt: as §1

[7] = system: K.pneumoniae ATCC10031; conditions: Klebsiella pneumoniae; K.pneumoniae ATCC10031; read-out: Minimum Inhibitory Concentration (MIC)
Excerpt: as §1

[8] = system: K.pneumoniae C1040; conditions: Klebsiella pneumoniae; K.pneumoniae C1040; read-out: Minimum Inhibitory Concentration (MIC)
Excerpt: as §1

[9] = system: MRSA C2208; conditions: Staphylococcus aureus; MRSA C2208; read-out: Minimum Inhibitory Concentration (MIC)
Excerpt: as §1

[10] = system: P.aeruginosa ATCC10145; conditions: Pseudomonas aeruginosa; P.aeruginosa ATCC10145; read-out: Minimum Inhibitory Concentration (MIC)
Excerpt: as §1

[11] = system: P.aeruginosa ATCC27853; conditions: Pseudomonas aeruginosa; P.aeruginosa ATCC27853; read-out: Minimum Inhibitory Concentration (MIC)
Excerpt: as §1

[12] = system: P.aeruginosa C2027; conditions: Pseudomonas aeruginosa; P.aeruginosa C2027; read-out: Minimum Inhibitory Concentration (MIC)
Excerpt: as §1

[13] = system: P.aeruginosa C4070; conditions: Pseudomonas aeruginosa; P.aeruginosa C4070; read-out: Minimum Inhibitory Concentration (MIC)
Excerpt: as §1

[14] = system: P.mirabilis ATCC25933; conditions: Proteus mirabilis; P.mirabilis ATCC25933; read-out: Minimum Inhibitory Concentration (MIC)
Excerpt: as §1

[15] = system: P.rettgeri ATCC9919; conditions: Providencia rettgeri; P.rettgeri ATCC9919; read-out: Minimum Inhibitory Concentration (MIC)
Excerpt: as §1

[16] = system: S.Faecalis ATCC29212; conditions: Enterococcus faecalis
Excerpt: as §1

[17] = system: S.aureus ATCC29213; conditions: Staphylococcus aureus; S.aureus ATCC29213; read-out: Minimum Inhibitory Concentration (MIC)
Excerpt: as §1

[18] = system: S.aureus C4036; conditions: Staphylococcus aureus; S.aureus C4036; read-out: Minimum Inhibitory Concentration (MIC)
Excerpt: as §1

[19] = system: S.aureus Smith; conditions: Staphylococcus aureus; S.aureus Smith; read-out: Minimum Inhibitory Concentration (MIC)
Excerpt: as §1

[20] = system: S.epidermidis ATCC12228; conditions: Staphylococcus epidermidis; S.epidermidis ATCC12228; read-out: Minimum Inhibitory Concentration (MIC)
Excerpt: as §1

[21] = system: S.marcescens ATCC27117; conditions: Serratia marcescens; S.marcescens ATCC27117; read-out: Minimum Inhibitory Concentration (MIC)
Excerpt: as §1

[22] = system: S.marcescens C1052; conditions: Serratia marcescens; S.marcescens C1052; read-out: Minimum Inhibitory Concentration (MIC)
Excerpt: as §1

[23] = system: S.pyogenes ATCC 8668; conditions: Streptococcus pyogenes, ATCC8668; S.pyogenes ATCC 8668; read-out: Minimum Inhibitory Concentration (MIC)
Excerpt: as §1

[24] = system: S.pyogenes C4003; conditions: Streptococcus pyogenes; S.pyogenes C4003; read-out: Minimum Inhibitory Concentration (MIC)
Excerpt: as §1

[25] = system: S.typhimurium C4045; conditions: Salmonella enterica; S.typhimurium C4045; read-out: Minimum Inhibitory Concentration (MIC)
Excerpt: as §1

| Structure (SMILES) | MIC [1] [µg/mL] | MIC [2] [µg/mL] | MIC [3] [µg/mL] | MIC [4] [µg/mL] | MIC [5] [µg/mL] | MIC [6] [µg/mL] | MIC [7] [ng/mL] | MIC [8] [µg/mL] | MIC [9] [µg/mL] | MIC [10] [µg/mL] | MIC [11] [µg/mL] | MIC [12] [µg/mL] | MIC [13] [µg/mL] | MIC [14] [µg/mL] | MIC [15] [ng/mL] | MIC [16] [µg/mL] | MIC [17] [µg/mL] | MIC [18] [µg/mL] | MIC [19] [µg/mL] | MIC [20] [µg/mL] | other results |
| --- | --- | --- | --- | --- | --- | --- | --- | --- | --- | --- | --- | --- | --- | --- | --- | --- | --- | --- | --- | --- | --- |
| CO/N=C(\C(=O)N[C@@H]1C(=O)N2C(C(=O)[O-])=C(C[n+]3ccc4[nH]c(=NC#N)[nH]c4c3)CS[C@H]12)c1csc(N)n1 [Ex. 3, 7-β-[(Z)-2-(2-Aminothiazol-4-yl)-2-methoxyiminoacetamido]-3-[2-(1H,3H)-cyanoimine-imidazo[4,5-c]pyridiniummethyl]-3-cephem-4-carboxylate] | 0.013 (≈ 0.0234 µM) | 0.025 (≈ 0.0451 µM) | 0.013 (≈ 0.0234 µM) | 0.05 (≈ 0.0902 µM) | 0.05 (≈ 0.0902 µM) | 6.25 (≈ 11.3 µM) | 7 (≈ 0.0126 µM) | 0.025 (≈ 0.0451 µM) | > 100 | 12.5 (≈ 22.5 µM) | 6.25 (≈ 11.3 µM) | 6.25 (≈ 11.3 µM) | 12.5 (≈ 22.5 µM) | 0.025 (≈ 0.0451 µM) | 7 (≈ 0.0126 µM) | > 100 | 3.13 (≈ 5.64 µM) | 3.13 (≈ 5.64 µM) | 1.56 (≈ 2.81 µM) | 0.78 (≈ 1.41 µM) | MIC [21]: 0.025 µg/mL (≈ 0.0451 µM); MIC [22]: 0.05 µg/mL (≈ 0.0902 µM); MIC [23]: 4 ng/mL (≈ 0.00721 µM); MIC [24]: 4 ng/mL (≈ 0.00721 µM); MIC [25]: 0.025 µg/mL (≈ 0.0451 µM) |
| CO/N=C(\C(=O)N[C@@H]1C(=O)N2C(C(=O)[O-])=C(C[n+]3ccc4[nH]c(=NC#N)[nH]c4c3)CS[C@H]12)c1nsc(N)n1 [Ex. 4, 7-β-[(Z)-2-(5-Amino-1,2,4-thiadiazol-3-yl)-2-methoxyiminoacetamido]-3-[2-(1H,3H)-cyanoimine-imidazo[4,5-c]pyridiniummethyl]-3-cephem-4-carboxylate] | 0.05 (≈ 0.09 µM) | 0.05 (≈ 0.09 µM) | 0.05 (≈ 0.09 µM) | 0.1 (≈ 0.18 µM) | 0.1 (≈ 0.18 µM) | 12.5 (≈ 22.5 µM) | 13 (≈ 0.0234 µM) | 0.025 (≈ 0.045 µM) | > 100 | 12.5 (≈ 22.5 µM) | 25 (≈ 45 µM) | 6.25 (≈ 11.2 µM) | 12.5 (≈ 22.5 µM) | 0.025 (≈ 0.045 µM) | 13 (≈ 0.0234 µM) | > 100 | 3.13 (≈ 5.63 µM) | 3.13 (≈ 5.63 µM) | 3.13 (≈ 5.63 µM) | 1.56 (≈ 2.81 µM) | MIC [21]: 0.05 µg/mL (≈ 0.09 µM); MIC [22]: 0.05 µg/mL (≈ 0.09 µM); MIC [23]: 7 ng/mL (≈ 0.0126 µM); MIC [24]: 7 ng/mL (≈ 0.0126 µM); MIC [25]: 0.05 µg/mL (≈ 0.09 µM) |
| CO/N=C(\C(=O)N[C@@H]1C(=O)N2C(C(=O)[O-])=C(C[n+]3ccc4c(c3)[nH]c(=O)n4C)CS[C@H]12)c1nsc(N)n1 [Ex. 6, 7-β-[(Z)-2-(5-Amino-1,2,4-thiadiazol-3-yl)-2-methoxyiminoacetamido]-3-[1-methyl-2-(3H)-oxo-imidazo[4,5-c]pyridiniummethyl]-3-cephem-4-carboxylate] | 0.013 (≈ 0.0238 µM) | 0.013 (≈ 0.0238 µM) | 0.007 (≈ 0.0128 µM) | 0.025 (≈ 0.0458 µM) | 0.025 (≈ 0.0458 µM) | 1.56 (≈ 2.86 µM) | 7 (≈ 0.0128 µM) | 0.007 (≈ 0.0128 µM) | > 100 | 1.56 (≈ 2.86 µM) | 3.13 (≈ 5.74 µM) | 1.56 (≈ 2.86 µM) | 3.13 (≈ 5.74 µM) | 0.025 (≈ 0.0458 µM) | 7 (≈ 0.0128 µM) | > 100 | 3.13 (≈ 5.74 µM) | 3.13 (≈ 5.74 µM) | 3.13 (≈ 5.74 µM) | 1.56 (≈ 2.86 µM) | MIC [21]: 0.025 µg/mL (≈ 0.0458 µM); MIC [22]: 0.05 µg/mL (≈ 0.0916 µM); MIC [23]: 7 ng/mL (≈ 0.0128 µM); MIC [24]: 4 ng/mL (≈ 0.00733 µM); MIC [25]: 0.025 µg/mL (≈ 0.0458 µM) |
| Nc1nc(/C(=N/O)C(=O)N[C@@H]2C(=O)N3C(C(=O)[O-])=C(C[n+]4ccc5[nH]c(=O)[nH]c5c4)CS[C@H]23)ns1 [Ex. 7, 7-β-[(Z)-2-(5-Amino-1,2,4-thiadiazol-3-yl)-2-hydroxyiminoacetamido]-3-[2-(1H, 3H)-oxo-imidazo[4,5-c]pyridiniummethyl]-3-cephem-4-carboxylate] | 0.1 (≈ 0.193 µM) | 0.1 (≈ 0.193 µM) | 0.025 (≈ 0.0483 µM) | 0.05 (≈ 0.0966 µM) | 6.25 (≈ 12.1 µM) | 1.56 (≈ 3.01 µM) | 25 (≈ 0.0483 µM) | 1.56 (≈ 3.01 µM) | > 100 | 12.5 (≈ 24.2 µM) | 50 (≈ 96.6 µM) | 6.25 (≈ 12.1 µM) | 50 (≈ 96.6 µM) | 0.1 (≈ 0.193 µM) | 500 (≈ 0.966 µM) | > 100 | 0.78 (≈ 1.51 µM) | 1.56 (≈ 3.01 µM) | 6.25 (≈ 12.1 µM) | 3.13 (≈ 6.05 µM) | MIC [21]: 0.1 µg/mL (≈ 0.193 µM); MIC [22]: 0.2 µg/mL (≈ 0.386 µM); MIC [23]: 100 ng/mL (≈ 0.193 µM); MIC [24]: 200 ng/mL (≈ 0.386 µM); MIC [25]: 0.1 µg/mL (≈ 0.193 µM) |
